Test results taken from publication PMC10721329, “Quisinostat is a brain-penetrant radiosensitizer in glioblastoma” (JCI Insight, 2023).
Values joined by “and” are separate entries in the source; they are usually repeats but may differ in a detail not shown here. Identical values can stand only once. Like-named read-outs stand apart in the source and are kept apart here.

Legend:
[1] = test system: histone H3 acetylation (H3K9/14ac); assay: H3K9/14ac immunoblot of normal brain tissue; assay type: in vivo, athymic nude mice; details: QST 10 mg/kg IP MWF 2 weeks, individual mice
Experimental: Insufficient drug exposure in the brain is a major hurdle in the treatment of brain tumors. […] On the last treatment day, blood and intact brains were harvested 2 hours after dosing with QST (Figure 6E). […] Each brain hemisphere was processed separately to perform matched PK and PD analyses from the same animal. […] For PD analyses, we homogenized entire hemispheres to obtain whole-tissue protein lysates from each mouse and assessed changes in histone H3 acetylation levels using immunoblotting.
Cellular protein from cultured cells was homogenized in radioimmunoprecipitation assay (RIPA) lysis buffer containing protease and phosphatase inhibitors (ThermoFisher Scientific), rotated at 4 °C for 20 minutes and then centrifuged at 15,000 rpm for 10 minutes at 4 °C. For histone extractions, benzonase (0.1 U/μL) was added in RIPA buffer (Millipore-Sigma, 70746-4). Protein concentrations from whole-cell extracts were determined using the Bradford Protein Assay (ThermoFisher Scientific). Equal amounts of protein (10-40 μg/lane) were loaded onto 10% or 12.5% sodium dodecyl sulfate–polyacrylamide gel electrophoresis gels and transferred to a polyvinylidene fluoride membrane (Millipore-Sigma). […]

[2] = Total QST levels in plasma and flank tumors (LC-MS/MS); assay type: in vivo; details: athymic nude, mouse, 10 mg/kg
Experimental: QST concentrations in specimens were measured using reverse-phase LC on the AB SCIEX QTRAP6500+ LC-MS/MS system by operating electrospray in the positive ion mode. For liquid chromatographic separation, gradient elution was performed using a Phenomenex Kinetex F5 100 Å column (100 × 2.1 mm, 2.6 μm). The initial composition of the mobile phase was 70% phase A (0.1% formic acid in water) and 30% phase B (0.1% formic acid in 1:1 acetonitrile/methanol) with a 0.35 mL/min flow rate. Gradient elution was achieved as follows: mobile phase (B) was maintained at 30% from 0 to 0.3 minutes, increased to 95% from 0.3 to 0.8 minutes, maintained at 95% from 0.8 to 2.5 minutes, and decreased to 30% from 2.5 to 2.8 minutes. The total run time was 3.5 minutes. The internal standard used in this study was D8-infigratinib. The retention times for QST and D8-infigratinib were 1.6 and 1.8 minutes, respectively. Mass-to-charge ratio transitions were as follows: 395.20 → 144.00 (QST) and 568.08 → 321.00 (D8-infigratinib). LC-MS/MS analysis was performed using an Analyst 1.7 Chromatographic Data System. See Supplemental Methods for detailed PK experiments. […]
treated with 2 Gy of ionizing radiation on MWF for a total 6 Gy (3 doses). Ionizing radiation was administered with the RS2000 series biological research irradiator (Rad Source Technologies).
Treatment of Flank-Implanted Mice with QST and/or Radiation
Implanted flank tumors were allowed to grow until the tumor size reached 100 mm3 volume. Mice were randomized into groups before treatment and underwent treatment on MWF for the entire duration of the experiment until the tumor volumes exceeded 2000 mm3. Treatment groups included vehicle (50% PEG-300), QST alone (10 mg/kg), flank IR treatment with vehicle (2 Gy), and flank IR treatment (2 Gy) with QST (10 mg/kg). For mice receiving IR treatment with or without QST, mice were treated with 2 Gy on MWF for a total 6 Gy during the first week of treatment. QST was administered to mice through intraperitoneal injections 2 hours before flank tumor radiation treatment. Upon completion of the radiation regimen, IR-treated mice subsequently received QST or vehicle alone for the rest of the experiment. Tumor growth and treatment response were monitored by manually measuring the tumor area twice per week starting at 13 days after implantation. Upon reaching the tumor volume threshold (2000 mm3), mice were sacrificed, and plasma and tissue samples were harvested for PD and PK analyses 2 hours after treatment with a final dose of QST (10 mg/kg). […]
Calibration Standards and Quality Control Samples
Stock solutions of standard (1 mM QST) and IS (250 µM D8-infigratinib) were prepared in acetonitrile. Working solutions for calibration curve standards and quality controls (QCs) were prepared by dilutions with a 40% methanol mixture aqueous solution. The IS precipitation solution (10 nM) was prepared from the IS stock solutions by dilution with methanol. Calibration standards and batch qualifying QCs were freshly spiked for every batch. For sample analysis in human and mouse matrices, calibration standards were prepared in bulk by spiking appropriate amounts of working solutions into blank human plasma, used as a surrogate matrix due to the instability of QST in mouse plasma. For sample analysis in neural stem cell media and cell lysate, calibration standards were prepared in bulk by spiking appropriate amounts of working solutions into neural stem cell media. QC samples were prepared in bulk by spiking appropriate amounts of working solutions into blank mouse plasma or cell media. Preparation of calibration standards and QC samples was performed at 4 °C. Final concentrations range of the calibration standards were 1–1000 nM in human plasma or neural stem cell media. Three QC levels (low, medium, and high) were used during all sample analyses. The concentrations of QC samples in various matrices were 3 nM (low QC), 22 nM (medium QC), and 800 nM (high QC). All stock […]

Cn1cc(CNCC2CCN(c3ncc(C(=O)NO)cn3)CC2)c2ccccc21 [QST, quisinostat]
H3K9/14ac levels normalized to B-actin (fold change) [1]: 2.1642 and 2.588 and 3.2892 and 1.999 and 1.763 | concentration at 2 h ([2]; flank tumor, intraperitoneal, Combination (QST+IR) cohort, read-out: [QST] total, flank tumor, Mean): 501 nM | concentration at 2 h ([2]; flank tumor, intraperitoneal, QST monotherapy cohort, read-out: [QST] total, flank tumor, Mean): 479 nM | concentration at 2 h ([2]; flank tumor, ip, QST- and combination-treated mice, 10 mg/kg IP, 2 hours after final dose, read-out: mean total QST concentration in flank tumors): ~433 nM | concentration at 2 h ([2]; plasma, intraperitoneal, Combination (QST+IR) cohort, read-out: [QST] total, plasma, Mean): 276 nM | concentration at 2 h ([2]; plasma, intraperitoneal, QST monotherapy cohort, read-out: [QST] total, plasma, Mean): 250 nM | concentration at 2 h ([2]; plasma, ip, QST- and combination-treated mice, 10 mg/kg IP, 2 hours after final dose, read-out: mean total QST concentration in plasma): ~300 nM
